The numbers were not newly measured in publication PMC2099433, “The binding site for neohesperidin dihydrochalcone at the human sweet taste receptor” (BMC Structural Biology, 2007), which cites them from elsewhere.

The test system of series [1] is sweet taste. The arrangement: method as in PMID 831282, PMID 14403185. The following applies: cited from earlier work.
For series [2], the system named is sweet taste. The arrangement: method as in PMID 10480680. The following applies: humans; cited from earlier work.

As for `COc1ccc(CCC(=O)c2c(O)cc(O)cc2O)cc1O` [hesperitin dihydrochalcone], the taste result with sweet taste [1] was “tastes sweet”.

Turning to `COc1ccc(OC(C)C(=O)O)cc1` (centres unmarked) [lactisole], in the series with sweet taste [2], the “inhibition of the sweet taste of NHDC” value is recorded as “did not inhibit the sweet taste of NHDC”.
